Experimental findings from PubChem BioAssay (NCI) are described below.

Test systems include CAKI-1 renal; EKVX NSCLC; HL-60(TB) leukemia; IGROV1 ovarian; MOLT-4 leukemia; NCI-H23 lung; SF-268 CNS; U251 CNS; HCT-15 colon; PC-3 prostate.
Assay in all cases: growth of human tumour cells (NCI), 48 h

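Protocol summary: plate cells (96-well), add compound at 5 concentrations, incubate 48 h, interpolate endpoints linearly. The concentration for 50% growth inhibition is given as GI50. TGI denotes the concentration required for complete inhibition of growth.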

As for `O=c1cc2n(c(=O)[nH]1)C1OC(C(O)C1O)[C@H]2CCO` (some centres undefined), the TGI in the assay on CAKI-1 renal, in the assay with EKVX NSCLC, in the assay with HL-60(TB) leukemia, in the assay with IGROV1 ovarian, with MOLT-4 leukemia and in the assay with NCI-H23 lung was over 100 µM each time. The TGI in the assay on SF-268 CNS and in the assay with U251 CNS was over 100 µM throughout.

`COCC1C(=O)c2cc3c(cc2C12C=CC1(C=C2)OCCO1)OCO3` (centres undefined): the TGI with CAKI-1 renal stood at 29.8 µM; with EKVX NSCLC, 30.4 µM; in the assay with HCT-15 colon it was 2.96 µM; in the assay with HL-60(TB) leukemia, 5.97 µM; in the assay on IGROV1 ovarian, 29.4 µM; in the assay on MOLT-4 leukemia it was 9.6 µM. The values for the TGI in the assay with NCI-H23 lung, in the assay with SF-268 CNS and in the assay on U251 CNS were 26.9 µM, 16 µM and 14 µM, respectively.

As for `Nc1nc(=O)n(C2CC(O)C(O)C(CO)O2)cc1F` (centres undefined), the TGI in the assay on EKVX NSCLC, with HCT-15 colon, in the assay with HL-60(TB) leukemia, in the assay on IGROV1 ovarian, in the assay with MOLT-4 leukemia and in the assay with NCI-H23 lung was over 100 µM each time. Further, the TGI with SF-268 CNS and with U251 CNS was over 100 µM in each case.

In the case of `COC(=O)CCC(=O)CC(=O)C(=O)Nc1ccc(F)cc1`, the TGI in the assay with CAKI-1 renal, with EKVX NSCLC, in the assay on HCT-15 colon, in the assay with IGROV1 ovarian, in the assay with MOLT-4 leukemia and in the assay on NCI-H23 lung was over 100 µM in each case. The TGI with SF-268 CNS and with U251 CNS was over 100 µM throughout.

In the case of `CC1(C)CC[C@]2(C(=O)n3ccnc3)CC[C@]3(C)[C@H](C(=O)C=C4[C@@]5(C)C=C(C#N)C(=O)C(C)(C)[C@@H]5CC[C@]43C)[C@@H]2C1`, the GI50 is under 0.01 µM in the assay on CAKI-1 renal; 0.141 µM in the assay on EKVX NSCLC; under 0.01 µM with HCT-15 colon; under 0.0106 µM in the assay on IGROV1 ovarian; under 0.01 µM in the assay on MOLT-4 leukemia; under 0.0151 µM with NCI-H23 lung. Further, the values for the GI50 in the assay with PC-3 prostate, with SF-268 CNS and in the assay on U251 CNS were under 0.0142 µM, 0.0164 µM and under 0.01 µM, respectively. Moreover, the TGI with CAKI-1 renal is 0.0393 µM; with EKVX NSCLC, 0.545 µM; in the assay with HCT-15 colon it was 0.0204 µM; in the assay on IGROV1 ovarian it was under 0.0292 µM; with MOLT-4 leukemia, under 0.01 µM; in the assay with NCI-H23 lung it was 0.0786 µM. In addition, the results for the TGI in the assay on PC-3 prostate, with SF-268 CNS and in the assay on U251 CNS were 0.0655 µM, over 100 µM and 0.0281 µM, respectively.

As to `O=C(Nc1ccc(Cl)c(Cl)c1)C(=O)Nn1c(=S)[nH]c2ccccc2c1=O`, the TGI with CAKI-1 renal, in the assay on EKVX NSCLC, in the assay on HCT-15 colon, in the assay with HL-60(TB) leukemia, with IGROV1 ovarian and with MOLT-4 leukemia was over 100 µM each time. Moreover, the TGI in the assay on NCI-H23 lung, in the assay with SF-268 CNS and with U251 CNS was over 100 µM each time.

As for `O=C(CC1(O)C(=O)Nc2c(Cl)cccc21)c1ccccc1` (centres undefined), the TGI in the assay with CAKI-1 renal, in the assay with EKVX NSCLC, with HCT-15 colon, with HL-60(TB) leukemia, with MOLT-4 leukemia and in the assay on NCI-H23 lung was over 100 µM each time. The TGI in the assay with SF-268 CNS and in the assay on U251 CNS was over 100 µM throughout.

In the case of `Cc1cc2cc(Cl)ccc2nc1C(=O)c1ccccc1`, the TGI with CAKI-1 renal, in the assay with HCT-15 colon, with IGROV1 ovarian, in the assay with MOLT-4 leukemia, in the assay with NCI-H23 lung and in the assay on SF-268 CNS was over 100 µM throughout. In the assay on U251 CNS, this molecule returned a TGI of over 100 µM.

Regarding `CC(C)(C)C(=O)OCOP(=O)(OCOC(=O)C(C)(C)C)C1CCCN(OC(=O)c2ccccc2)C1=O` (centres undefined), the GI50 in the assay on EKVX NSCLC was 0.999 µM; in the assay on HCT-15 colon it was 1.28 µM; in the assay on IGROV1 ovarian, 0.657 µM; in the assay with MOLT-4 leukemia it was 1.02 µM; in the assay on NCI-H23 lung, 1.51 µM; in the assay on PC-3 prostate, 4.38 µM. The GI50 was 1.86 µM in the assay with SF-268 CNS and 0.919 µM in the assay with U251 CNS. Besides, the TGI with EKVX NSCLC was 50.7 µM; in the assay on HCT-15 colon, 39.9 µM; in the assay with IGROV1 ovarian, 3.08 µM; in the assay on MOLT-4 leukemia, 8.45 µM; in the assay on NCI-H23 lung it was 9.74 µM; in the assay with PC-3 prostate it was over 100 µM. Further, the TGI in the assay on SF-268 CNS was determined as 61.7 µM; in the assay on U251 CNS it was 10.5 µM.

On to `COc1ccc(CN2C(=O)C(Cc3cc(OC)c(OC)c(C)c3OC)N(C(=O)OC(C)C)C(=O)/C2=C/c2cc(OC)c(OC)c(C)c2OC)cc1` (centres undefined), for which the TGI in the assay with CAKI-1 renal, with EKVX NSCLC, in the assay on HL-60(TB) leukemia, in the assay on IGROV1 ovarian, in the assay with MOLT-4 leukemia and with NCI-H23 lung was over 100 µM in each case. The TGI with SF-268 CNS and in the assay with U251 CNS was over 100 µM in each case.

For the molecule `C=CCCC(O)c1ccc(C(O)CCCCCCCCCCCC)o1` (centres undefined), the GI50 was 18.1 µM with CAKI-1 renal; 23.9 µM with EKVX NSCLC; 16.2 µM in the assay on HCT-15 colon; 18.7 µM in the assay with IGROV1 ovarian; 7.16 µM in the assay with MOLT-4 leukemia; 19.3 µM in the assay with NCI-H23 lung. The GI50 is 22.8 µM with PC-3 prostate, over 100 µM in the assay with SF-268 CNS and 17.5 µM in the assay on U251 CNS. Also, the TGI in the assay with CAKI-1 renal was 34.8 µM; in the assay with EKVX NSCLC, 50.4 µM; in the assay with HCT-15 colon, 31.6 µM; with IGROV1 ovarian it was 43.2 µM; in the assay on MOLT-4 leukemia, 38.3 µM; with NCI-H23 lung, 34.7 µM. The TGI is 47.8 µM with PC-3 prostate, over 100 µM with SF-268 CNS and 31.9 µM in the assay with U251 CNS.

For `Cc1cc2c(cc1C)N1Cc3c(ccc(C)c3C)N(C2)C1` (tested in a mixture with another compound), the TGI with EKVX NSCLC, in the assay on HL-60(TB) leukemia, in the assay with IGROV1 ovarian, in the assay on MOLT-4 leukemia, with NCI-H23 lung and with SF-268 CNS was over 100 µM each time. In the assay with U251 CNS, this molecule registered a TGI of over 100 µM.
